Data on five molecules can be found in US6548666B1, “Tricyclic compounds and their use in medicine process for their preparation and pharmaceutical compositions containing them” (Dr. Reddy's Research Foundation, priority 1997, dated 2003).

Assay [1] concerns C57BL/KsJ-db/db mice. Kind of assay: Blood sugar and triglyceride lowering in db/db mice. Type of assay: in vivo, mouse. From the text: Mutation in colonies of laboratory animals and different sensitivities to dietary regimens have made the development of animal models with non-insulin dependent diabetes and hyperlipidemia associated with obesity and insulin resistance possible. Genetic models such as db/db and ob/ob (Diabetes, (1982) 31 (1): 1-6) mice and zucker fa/fa rates have been developed by the various laboratories for understanding the pathophysiology of disease and testing the efficacy of new antidiabetic compounds (Diabetes, (1983) 32: 830-838; Annu. Rep. Sankyo Res. Lab. (1994). 46: 1-57). The homozygous animals, C57 BL/KsJ-db/db mice developed by Jackson Laboratory, U.S., are obese, hyperglycemic, hyperinsulinemic and insulin resistant (J. Clin. Invest., (1990) 85: 962-967), whereas heterozygous are lean and normoglycemic. In db/db model, mouse progressively develops insulinopenia with age, a feature commonly observed in late stages of human type II diabetes when blood sugar levels are insufficiently controlled. The state of pancreas and its course vary according to the models. Since this model resembles that of type II diabetes mellitus, the compounds of the present invention were tested for blood sugar and triglycerides lowering activities.
Male C57BL/KsJ-db/db mice of 8 to 14 weeks age, having body weight range of 35 to 60 grams, bred at Dr. Reddy's Research Foundation (DRF) animal house, were used in the experiment. The mice were provided with standard feed (National Institute of Nutrition (NIN), Hyderabad, India) and acidified water, ad libitum. The animals having more than 350 mg/dl blood sugar were used for testing. The number of animals in each group was 4.
Test compounds were suspended on 0.25% carboxymethyl cellulose and administered to test group at a dose of 0.1 mg to 30 mg/kg through oral gavage daily for 6 days. The control group received vehicle (dose 10 mL/kg). On 6 th day the blood samples were collected one hour after administration of test compounds/vehicle for assessing the biological activity.
The random blood sugar and triglyceride levels were measured by collecting blood ([…]) through orbital sinus, using heparinised capillary in tubes containing EDTA which was centrifuged to obtain plasma. The plasma glucose and triglyceride levels were measured spectrometrically, by glucose oxidase and glycerol-3-PO4 oxidase/peroxidase enzyme (Dr. Reddy's Lab. Diagnostic Division Kits, Hyderabad, India) methods respectively.
The blood sugar and triglycerides lowering activities of the test compound was calculated according to the formula.
(§1) 1. Percent reduction in Blood sugar/triglycerides/total cholesterol were calculated according to the formula: [formula]

For assay [2], the target named is T1, hPPARγ1 (Homo sapiens, UniProt P37231).
T1 construct: expressed in transfected cells; host or cells: HEK-293
T1 sequence (P37231 238-503 limits assumed): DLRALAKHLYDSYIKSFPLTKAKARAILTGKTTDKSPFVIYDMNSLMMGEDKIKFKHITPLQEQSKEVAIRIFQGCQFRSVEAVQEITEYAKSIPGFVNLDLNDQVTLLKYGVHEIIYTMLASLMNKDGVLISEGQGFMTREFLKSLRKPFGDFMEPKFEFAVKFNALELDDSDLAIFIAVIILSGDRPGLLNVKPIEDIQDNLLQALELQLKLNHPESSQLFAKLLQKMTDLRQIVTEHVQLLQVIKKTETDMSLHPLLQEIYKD
In words: Determination of hPPARγ activity (GAL4 fusion luciferase reporter, HEK-293). Type of assay: cell-based. The following applies: 1 μM compound; HEK-293 cells, GAL4-hPPARγ1 LBD reporter. The procedure:
Ligand binding domain of hPPARγ1 was fused to DNA binding domain of Yeast transcription factor GAL4 in eucaryotic expression vector. Using lipofectamine (Gibco BRL, USA) as transfecting reagent HEK-293 cells were transfected with this plasmid and a reporter plasmid harboring the luciferase gene driven by a GAL4 specific promoter. Compound was added at 1 μM concentration after 48 hrs of transfection and incubated overnight.
For orientation: In a reporter assay the amount or activity of a reporter protein is the signal.

Assay [3] has as its target T2, hPPARα (Homo sapiens, UniProt Q07869).
T2 construct: expressed in transfected cells; host or cells: HEK-293
T2 sequence (Q07869 239-466 limits assumed): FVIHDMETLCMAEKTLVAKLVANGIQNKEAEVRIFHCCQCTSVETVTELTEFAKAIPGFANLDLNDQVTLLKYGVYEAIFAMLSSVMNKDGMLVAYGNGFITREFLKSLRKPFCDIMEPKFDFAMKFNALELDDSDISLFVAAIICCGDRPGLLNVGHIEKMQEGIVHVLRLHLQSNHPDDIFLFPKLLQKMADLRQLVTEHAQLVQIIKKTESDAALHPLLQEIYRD
Kind of assay: Determination of hPPARα activity (GAL4 fusion luciferase reporter, HEK-293). Type of assay: cell-based. The following applies: 50 μM compound; HEK-293 cells, GAL4-hPPARα LBD reporter. The procedure: Ligand binding domain of hPPARα was fused to DNA binding domain of Yeast transcription factor GAL4 in eucaryotic expression vector. Using superfect (Qiagen, Germany) as transfecting reagent HEK-293 cells were transfected with this plasmid and a reporter plasmid harboring the luciferase gene driven by a GAL4 specific promoter. Compound was added at different concentrations after 42 hrs of transfection and incubated overnight.

Assay [4] relates to Swiss albino mice. In words: Plasma triglyceride lowering activity in Swiss albino mice and Guinea pigs. Type of assay: in vivo, mouse. As to conditions: dose 1 mg (mg/kg), oral, 6 days; table follows the Swiss albino mice / Guinea pig section. The method, then:
Male Swiss albino mice (SAM) and male Guinea pigs were obtained from NIN and housed in DRF animal house. All these animals were maintained under 12 hour light and dark cycle at 25±1° C. Animals were given standard laboratory chow (NIN, Hyderabad, India) and water, ad libitum, SAM of 20-25 g body weight range and Guinea pigs of 500-700 g body weight range were used (Oliver, P., Plancke, M. O., Marzin. D., Clavey, V., Sauzieres, J and Fruchart, J. C. Effects of fenofibrate, gemfibrozil and nicotinic acid on plasma lipoprotein levels in normal and hyperlipidemic mice. Atherosclerosis. 1988. 70: 107-114).
The test compounds were administered orally to Swiss albino mice at 0.3 to 30 mg/kg/day dose for 6 days. Control mice were treated with vehicle (0.25% Carboxymethylcellulose; dose 10 mL/kg). The test compounds were administered orally to Guinea pigs at 0.3 to 30 mg/kg/day dose for 6 days. Control animals were treated with vehicle (0.25% Carboxymethylcellulose; dose 5 mL/kg).
The blood samples were collected in fed state 1 hour after drug administration on 0 and 6 day of treatment. The blood was collected from the retro-orbital sinus through heparinised capillary in EDTA containing tubes. After centrifugation, plasma sample was separation for triglyceride and total cholesterol (Wieland, O. Methods of Enzymatic analysis. Bergemeyer, H. O., Ed., 1963. 211-214; Trinder, P. Ann. Clin. Biochem. 1969. 6: 24-27). Measurement of plasma triglyceride, total cholesterol and HDL were done using commercial kits (Dr. Reddy's Diagnostic Division, Hyderabad, India).
as §1

[5] abbreviates: 10 mg/kg oral gavage daily for 6 days.
[6] abbreviates: 3 mg/kg oral gavage daily for 6 days.
Where [7] appears, read: 1 mg/kg oral gavage daily for 6 days.

On to `CCOC(Cc1ccc(OCCN2c3ccccc3Sc3ccccc32)cc1)C(=O)O` (racemic) [Example 11, (±) 3-[4-[2-(Phenothiazin-10-yl)ethoxy]phenyl]-2-ethoxypropanoic acid], for which, in assay [1] (setting [5]), the “Reduction in Blood Glucose Level (%)” value is on record as 66% and the “Triglyceride Lowering (%)” value is given as 50%. In addition, the “PPARγ (fold activation, luciferase activity)” value in assay [2] turned out to be 5.20 Fold. For the same molecule, in assay [3], the “PPARα (fold activation, luciferase activity)” value was 6.42 Fold.
Take `CCOC(Cc1ccc2oc(CN3c4ccccc4Sc4ccccc43)cc2c1)C(=O)[O-].[Na+]` (racemic) [Example 14, (±) 3-[2-(Phenothiazin-10-yl)methylbenzofuran-5-yl]-2-ethoxypropanoic acid, sodium salt]: in assay [1] (setting [6]), the “Reduction in Blood Glucose Level (%)” value worked out at 52% and the “Triglyceride Lowering (%)” value is given as 61%.
For `CC(Cc1ccc(OCCN2c3ccccc3Oc3ccccc32)cc1)(Oc1ccccc1)C(=O)[O-].[Na+]` (racemic) [Example 30, (±)3-[4-[2-(Phenoxazin-10-yl)ethoxy]phenyl]-2-phenoxy-2-methylpropanoic acid, sodium salt], in assay [1] (setting [7]), the “Reduction in Blood Glucose Level (%)” value is on record as 44%. Besides, the “Triglyceride Lowering (%)” value in assay [1] (setting [7]) came to 05%; in assay [4] it was 58%. Further, in assay [2], the “PPARγ (fold activation, luciferase activity)” value came to 13.9 Fold. In assay [3], the “PPARα (fold activation, luciferase activity)” value was 9.3 Fold.
As for `CCOC(Cc1ccc(OCCN2c3ccccc3Oc3ccccc32)cc1)C(=O)O.N=C(N)NCCC[C@H](N)C(=O)O` (single isomer, unassigned; (-)) [Example 28, (−) 3-[4-[2-(Phenoxazin-10-yl)ethoxy]phenyl]-2-ethoxypropanoic acid, arginine salt], in assay [1] (setting [7]), the “Reduction in Blood Glucose Level (%)” value turned out to be 40% and the “Triglyceride Lowering (%)” value worked out at 40%. For the same molecule, the “Triglyceride Lowering (%)” value in assay [4] worked out at 22%.
Take “(−) 3-[4-[2-(Phenoxazin-10-yl)ethoxy]phenyl]-2-ethoxypropanoic acid, magnesium salt [Example 25]”: the “Triglyceride Lowering (%)” value in assay [4] is reported as 6%.
